# Assay results as given in patent US20070232625A1, “Fungicidal Mixtures” (priority 2004, published 2007).
# Tested on: Alternaria solani
# Test: Activity against early blight of tomato caused by Alternaria solani (protective spray test on potted tomato plants)
# Type: in vivo
# Conditions: tomato cultivar Golden Princess, evaluated after 5 days
# Method: The active compounds, separately or jointly, were prepared as a stock solution comprising 0.25% by weight of active compound in acetone or DMSO. 1% by weight of the emulsifier Uniperol® EL (wetting agent having emulsifying and dispersant action based on ethoxylated alkylphenols) was added to this solution, and the mixture was diluted with water to the desired concentration.
# Leaves of potted plants of the cultivar “Golden Princess” were sprayed to runoff point with an aqueous suspension having the concentration of active compound stated below. The next day, the leaves were infected with an aqueous spore suspension of Alternaria solani in a 2% strength biomalt solution having a density of 0.17×10^6 spores/ml. The plants were then placed in a water-vapor-saturated chamber at temperatures between 20 and 22° C. After 5 days, the disease on the untreated but infected control plants had developed to such an extent that the infection could be determined visually in %.
# The visually determined percentages of infected leaf areas were converted into efficacies in % of the untreated control:
# The efficacy (E) is calculated as follows using Abbot's formula: E=(1−α/β)·100 • α corresponds to the fungal infection of the treated plants in % and • β corresponds to the fungal infection of the untreated (control) plants in %
# An efficacy of 0 means that the infection level of the treated plants corresponds to that of the untreated control plants; an efficacy of 100 means that the treated plants were not infected.
# The expected efficacies of mixtures of active compounds were determined using Colby's formula (Colby, S. R. “Calculating synergistic and antagonistic responses of herbicide combinations”, Weeds, 15, 20-22, 1967) and compared with the observed efficacies.
# Colby's formula: E=x+y−x·y/100 • E expected efficacy, expressed in % of the untreated control, when using the mixture of the active compounds A and B at the concentrations a and b • x efficacy, expressed in % of the untreated control, when using the active compound A at the concentration a
# y efficacy, expressed in % of the untreated control, when using the active compound B at the concentration b
Structure (SMILES),Efficacy in % of the untreated control (1 ppm active compound in the spray liquor) [%],Efficacy in % of the untreated control (6.25 ppm active compound in the spray liquor) [%],Efficacy in % of the untreated control (1.25 ppm active compound in the spray liquor) [%],"Efficacy in % of the untreated control (5 ppm active compound in the spray liquor, infected next day) [%]"
"CO/N=C(\Cc1cccnc1)c1cc(Cl)cc(Cl)c1 [II (pyrifenox), 1-(3,5-dichlorophenyl)-2-pyridin-3-ylethanone-O-methyloxime]",0,0,,
"CC1CCN(c2c(-c3c(F)cc(F)cc3F)c(Cl)nc3ncnn23)CC1 [I, 5-chloro-7-(4-methylpiperidin-1-yl)-6-(2,4,6-trifluorophenyl)-[1,2,4]triazolo[1,5-a]pyrimidine]",,,0,22
